Substitutions are numbered along the chain they refer to.
Key:
[1] = molecular target: T1, His-DENR–MCTS1 complex (recombinant WT DENR; DENR* = C13A/C132A/C154A) (Homo sapiens, UniProt O43583); experiment: in-gel Cy5 labelling after click chemistry; type: binding; conditions: covalent; with NEM; zinc-dependent
T1 construct: His-tagged DENR co-expressed with MCTS1 in Escherichia coli; heterodimeric complex; C4 zinc site C34/C37/C44/C53
T1 sequence (O43583 2-198): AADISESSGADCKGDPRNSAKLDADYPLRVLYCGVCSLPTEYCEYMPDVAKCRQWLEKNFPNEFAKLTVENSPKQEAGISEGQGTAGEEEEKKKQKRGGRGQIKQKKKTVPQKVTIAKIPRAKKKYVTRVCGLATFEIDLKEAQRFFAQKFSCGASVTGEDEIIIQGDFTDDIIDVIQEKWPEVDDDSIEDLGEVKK
T1 sequence (Q9ULC4 1-181 partner): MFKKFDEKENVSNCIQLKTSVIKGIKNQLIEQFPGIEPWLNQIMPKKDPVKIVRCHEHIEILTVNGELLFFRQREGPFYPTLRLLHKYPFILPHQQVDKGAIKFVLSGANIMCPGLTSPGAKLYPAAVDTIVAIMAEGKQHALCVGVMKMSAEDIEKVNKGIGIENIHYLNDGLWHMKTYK

[2] = molecular target: T2, SBP-DENR (SBP-DENR* = C13A/C132A/C154A) (Homo sapiens, UniProt O43583); experiment: affinity purification and click Cy5 in-gel labelling; type: cell-based; conditions: covalent; intact HEK293 MSR cells, 10 µM, 15 min, 37 °C
T2 sequence (O43583 1-198): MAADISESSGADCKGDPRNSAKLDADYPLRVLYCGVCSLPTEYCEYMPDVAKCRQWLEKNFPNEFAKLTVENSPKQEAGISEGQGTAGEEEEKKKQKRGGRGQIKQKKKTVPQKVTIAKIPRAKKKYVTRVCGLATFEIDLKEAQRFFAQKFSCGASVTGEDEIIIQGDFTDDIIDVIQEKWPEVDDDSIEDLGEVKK

[3] = molecular target: T3, 15N-labelled DENR26–98–MCTS1 complex (Homo sapiens, UniProt O43583); experiment: 1H NMR and 1H-15N HSQC; type: binding; conditions: covalent; fivefold excess, pH 7.5, 298 K
T3 construct: gene DENR; DENR residues 26-98, 15N-labelled, in complex with MCTS1
T3 sequence (O43583 26-98): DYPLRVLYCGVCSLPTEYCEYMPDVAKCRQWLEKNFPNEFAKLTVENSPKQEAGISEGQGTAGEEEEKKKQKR
T3 sequence (Q9ULC4 1-181 partner): T1 sequence (Q9ULC4 1-181 partner)

[4] = molecular target: T4, His-DENR–MCTS1 complex (recombinant WT DENR; DENR* = C13A/C132A/C154A) (Homo sapiens, UniProt O43583, C13A/C132A/C154A); experiment: differential alkylation LC-MS; intact protein MS; Zn release (PAR); type: binding; conditions: covalent; 25 µM rabeprazole, fivefold excess, 15 min, r.t., pH 7.5; site C44
T4 construct: His-tagged DENR co-expressed with MCTS1 in Escherichia coli; heterodimeric complex; C4 zinc site C34/C37/C44/C53
T4 sequence (O43583 2-198 C13A/C132A/C154A): T1 sequence (O43583 2-198) with C12A, C131A, C153A
T4 sequence (Q9ULC4 1-181 partner): T1 sequence (Q9ULC4 1-181 partner)

[5] = molecular target: T1, His-DENR–MCTS1 complex (recombinant WT DENR; DENR* = C13A/C132A/C154A); experiment: LC-MS/MS adduct mapping; type: binding; conditions: covalent; fivefold excess, iodoacetamide, 15 min, r.t., pH 7.5; sites C44 and C34

Row | Compound | in-gel Cy5 labelling after click chemistry [1] | affinity purification and click Cy5 in-gel labelling [2] | 1H NMR and 1H-15N HSQC [3] | occupancy [4] | LC-MS/MS adduct mapping [5]
1 | Cc1c(OCCCN=[N+]=[N-])ccnc1C[S+]([O-])c1nc2ccccc2[nH]1 (centres unmarked) [Rabazi] | Rabazi conjugation to recombinant DENR leads to a rather weak and diffuse band | led to the formation of an SBP-DENR–Rabazi disulfide conjugate | – | – | –
2 | COCCCOc1ccnc(C[S+]([O-])c2nc3ccccc3[nH]2)c1C (centres unmarked) [rabeprazole] | – | – | DENR exhibited time-dependent chemical shift perturbations of the amide peaks during incubation with rabeprazole | ~ 80% | we identified the hydrolysed form of rabeprazole on cysteines C44

— publication PMC11964933, “Site-specific activation of the proton pump inhibitor rabeprazole by tetrathiolate zinc centres” (Nature Chemistry, 2025)
